≈ marks a conversion by molar mass, not a printed value. Calls of active or inactive are those of the source. The rule behind the calls is not given here.
Tests used:
[1] = tested on: Lipid bilayer; assay: Binding affinity to bacterial membrane mimic POPG large unilamellar vesicle assessed as hyperchromic shift at 125 uM measured after 1 hr by UV-Vis spectrophotometric analysis
[2] = tested on: Bacillus subtilis; assay: Antibacterial activity against Bacillus subtilis ATCC 6633 assessed as bacterial growth inhibition incubated for 18 hrs by CLSI based micro-dilution broth method; type: functional
[3] = tested on: Enterococcus faecalis; assay: Antibacterial activity against Enterococcus faecalis ATCC 19433 assessed as bacterial growth inhibition incubated for 18 hrs by micro-dilution broth method; type: functional
[4] = tested on: Streptococcus pyogenes; assay: Antibacterial activity against Streptococcus pyogenes ATCC 12344 assessed as bacterial growth inhibition incubated for 18 hrs by micro-dilution broth method; type: functional
[5] = tested on: Staphylococcus aureus; assay: Antibacterial activity against Staphylococcus aureus ATCC 25923 assessed as bacterial growth inhibition incubated for 18 hrs by micro-dilution broth method; type: functional
[6] = tested on: Escherichia coli; assay: Antibacterial activity against Escherichia coli CCUG assessed as bacterial growth inhibition incubated for 18 hrs by micro-dilution broth method; type: functional
[7] = tested on: Klebsiella pneumoniae; assay: Antibacterial activity against Klebsiella pneumoniae ATCC 13833 assessed as bacterial growth inhibition incubated for 18 hrs by micro-dilution broth method; type: functional
[8] = tested on: Acinetobacter baumannii; assay: Antibacterial activity against Acinetobacter baumannii ATCC 17978 assessed as bacterial growth inhibition incubated for 18 hrs by micro-dilution broth method; type: functional
[9] = tested on: Pseudomonas aeruginosa; assay: Antibacterial activity against Pseudomonas aeruginosa ATCC 27853 assessed as bacterial growth inhibition incubated for 18 hrs by micro-dilution broth method; type: functional
[10] = tested on: Lipid bilayer; assay: Binding affinity to bacterial membrane mimic POPG large unilamellar vesicle assessed as bathochromic shift at 125 uM measured at t = 0 by UV-Vis spectrophotometric analysis
[11] = tested on: Enterobacter cloacae; assay: Antibacterial activity against Enterobacter cloacae VA-417/02 assessed as bacterial growth inhibition incubated for 18 hrs by CLSI based micro-dilution broth method; type: functional
[12] = tested on: Klebsiella pneumoniae; assay: Antibacterial activity against pan drug-resistant Klebsiella pneumoniae S1-081Rb assessed as bacterial growth inhibition incubated for 18 hrs by CLSI based micro-dilution broth method; type: functional
[13] = tested on: Acinetobacter baumannii; assay: Antibacterial activity against Acinetobacter baumannii AC-54/97 assessed as bacterial growth inhibition incubated for 18 hrs by CLSI based micro-dilution broth method; type: functional

| Structure (SMILES) | Activity [1] | MIC [2] | MIC [3] | MIC [4] | MIC [5] | MIC [6] | MIC [7] | MIC [8] | MIC [9] | Activity [10] | MBC [11] | MIC [11] | MBC [12] | MIC [12] | MBC [13] | MIC [13] |
| --- | --- | --- | --- | --- | --- | --- | --- | --- | --- | --- | --- | --- | --- | --- | --- | --- |
| N=C(NCCCCCCCCNC(=O)N(CCCCCCCCNC(=N)NCC1CC1)CCCCCCCCNC(=N)NCC1CC1)NCC1CC1.O=C(O)C(F)(F)F | Active | 1 mg/L | 8 mg/L | 1 mg/L | 4 mg/L | 8 mg/L | 8 mg/L | 64 mg/L | 64 mg/L | Active | – | – | – | – | – | – |
| CCCCCCCCN(CCCCCCCCNC(=N)NCC1CC1)C(=O)N(CCCCCCCC)CCCCCCCCNC(=N)NCC1CC1.O=C(O)C(F)(F)F | – | 128 mg/L | 32 mg/L | 8 mg/L | > 128 mg/L | > 128 mg/L | 128 mg/L | > 128 mg/L | > 128 mg/L | – | – | – | – | – | – | – |
| CCCCCCCCN(CCCCCCCC)C(=O)N(CCCCCCCC)CCCCCCCCNC(=N)NCC1CC1.O=C(O)C(F)(F)F | – | 64 mg/L | 128 mg/L | 16 mg/L | > 128 mg/L | > 128 mg/L | > 128 mg/L | > 128 mg/L | > 128 mg/L | – | – | – | – | – | – | – |
| N=C(N)NCCCCCCCCN(CCCCCCCCNC(=N)N)C(=O)N(CCCCCCCCNC(=N)N)CCCCCCCCNC(=N)NCC1CC1.O=C(O)C(F)(F)F | – | 2 mg/L | 2 mg/L | 1 mg/L | 2 mg/L | 8 mg/L | 4 mg/L | 8 mg/L | 16 mg/L | – | 8 mg/L | 8 mg/L | 16 mg/L | 8 mg/L | 16 mg/L | 8 mg/L |
| CCCCCCCCN(CCCCCCCC)C(=O)N(CCCCCCCCNC(=N)NCC1CC1)CCCCCCCCNC(=N)NCC1CC1.O=C(O)C(F)(F)F | – | 128 mg/L | 128 mg/L | 4 mg/L | > 128 mg/L | 128 mg/L | 64 mg/L | 128 mg/L | > 128 mg/L | – | – | – | – | – | – | – |

More lines, main results first:

| Activity [1] | MIC [2] | MIC [3] | MIC [4] | MIC [5] | MIC [6] | MIC [7] | MIC [8] | MIC [9] | Activity [10] | Structure (SMILES) | MBC [11] | MIC [11] | MBC [12] | MIC [12] | MBC [13] | MIC [13] |
| --- | --- | --- | --- | --- | --- | --- | --- | --- | --- | --- | --- | --- | --- | --- | --- | --- |
| – | > 128 mg/L | > 128 mg/L | > 128 mg/L | > 128 mg/L | > 128 mg/L | > 128 mg/L | > 128 mg/L | > 128 mg/L | – | CCCCCCCCN(CCCCCCCC)C(=O)N(CCCCCCCC)CCCCCCCC | – | – | – | – | – | – |
| – | 2 mg/L (≈ 2.46 µM) | 1 mg/L (≈ 1.23 µM) | 1 mg/L (≈ 1.23 µM) | 2 mg/L (≈ 2.46 µM) | 4 mg/L (≈ 4.91 µM) | 8 mg/L (≈ 9.82 µM) | 8 mg/L (≈ 9.82 µM) | 16 mg/L (≈ 19.6 µM) | – | CCCCCCN(CCCCCCCCNC(=N)NCC1CC1)C(=O)N(CCCCCCCCNC(=N)NCC1CC1)CCCCCCCCNC(=N)NCC1CC1 | – | – | – | – | – | – |
| – | 1 mg/L (≈ 1.32 µM) | 2 mg/L (≈ 2.64 µM) | 1 mg/L (≈ 1.32 µM) | 2 mg/L (≈ 2.64 µM) | 4 mg/L (≈ 5.28 µM) | 8 mg/L (≈ 10.6 µM) | 32 mg/L (≈ 42.2 µM) | 64 mg/L (≈ 84.4 µM) | – | CCCCCCN(CCCCCCNC(=N)NCC1CC1)C(=O)N(CCCCCCCCNC(=N)NCC1CC1)CCCCCCNC(=N)NCC1CC1 | – | – | – | – | – | – |
| Active | 2 mg/L (≈ 2.37 µM) | 2 mg/L (≈ 2.37 µM) | 1 mg/L (≈ 1.19 µM) | 16 mg/L (≈ 19 µM) | 4 mg/L (≈ 4.75 µM) | 4 mg/L (≈ 4.75 µM) | 4 mg/L (≈ 4.75 µM) | 8 mg/L (≈ 9.5 µM) | Active | CCCCCCCCN(CCCCCCCCNC(=N)NCC1CC1)C(=O)N(CCCCCCCCNC(=N)NCC1CC1)CCCCCCCCNC(=N)NCC1CC1 | – | – | – | – | – | – |
| Active | 4 mg/L (≈ 6.55 µM) | 32 mg/L (≈ 52.4 µM) | 16 mg/L (≈ 26.2 µM) | 2 mg/L (≈ 3.27 µM) | 32 mg/L (≈ 52.4 µM) | 64 mg/L (≈ 105 µM) | 64 mg/L (≈ 105 µM) | 128 mg/L (≈ 209 µM) | Active | N=C(N)NCCCCCCCCN(CCCCCCCCN)C(=O)N(CCCCCCCCN)CCCCCCCCN | – | – | – | – | – | – |
| – | 2 mg/L (≈ 2.46 µM) | 2 mg/L (≈ 2.46 µM) | 1 mg/L (≈ 1.23 µM) | 1 mg/L (≈ 1.23 µM) | 2 mg/L (≈ 2.46 µM) | 2 mg/L (≈ 2.46 µM) | 4 mg/L (≈ 4.91 µM) | 8 mg/L (≈ 9.82 µM) | – | CCCCCCCCN(CCCCCCNC(=N)NCC1CC1)C(=O)N(CCCCCCCCNC(=N)NCC1CC1)CCCCCCCCNC(=N)NCC1CC1 | – | – | – | – | – | – |
